Results from US8044069B2, “Compounds as calcium channel blockers” (Abbott Laboratories, priority 2008, dated 2011).

Target: human Cav2.2 (Homo sapiens, UniProt Q00975)
Test: Assessment of calcium channel activity using FLIPR (Ca2+ influx in IMR32 cells)
Assay type: cell-based
Details: IMR32 cells endogenously expressing human Cav2.2; 60 minute pre-incubation; 2 μM nifedipine; depolarized with 80 mM KCl, 5 mM CaCl2
Description: (i) In Vitro Methods—Assessment of Calcium Channel Activity Using FLIPR:
The IMR32 cells were maintained in MEM media containing 10% (v/v) FBS, 1% (v/v) antibiotic/antimitotic, 1% (v/v) sodium pyruvate and 1% (v/v) MEM NEAA. Following dissociation in 0.05% (v/v) trypsin/EDTA, cells were seeded into black 1×96-well plates (Corning Cellbind) at a density of 1-1.2×10^5 cells/well and incubated in the maintenance media above for 48 hours at 37° C. […] After dye loading and a subsequent 60 minute pre-incubation with compounds (full log dilutions from 10 μM to 0.1 nM) in the presence of 1.3 mM CaCl2 and 2 μM nifedipine to block endogenous L-type channels, the external Ca^2+ concentration was increased to 5 mM CaCl2 and the cells concomitantly depolarized with 80 mM KCl to assay channel activity. To determine the IC50 values, the percent inhibition of the compound at each concentration was determined relative to the activity in the absence of inhibitor, and data was fitted using non-linear regression sigmoidal dose response curve analysis with GraphPad Prism®.

Sequence of human Cav2.2 (Q00975 whole entry): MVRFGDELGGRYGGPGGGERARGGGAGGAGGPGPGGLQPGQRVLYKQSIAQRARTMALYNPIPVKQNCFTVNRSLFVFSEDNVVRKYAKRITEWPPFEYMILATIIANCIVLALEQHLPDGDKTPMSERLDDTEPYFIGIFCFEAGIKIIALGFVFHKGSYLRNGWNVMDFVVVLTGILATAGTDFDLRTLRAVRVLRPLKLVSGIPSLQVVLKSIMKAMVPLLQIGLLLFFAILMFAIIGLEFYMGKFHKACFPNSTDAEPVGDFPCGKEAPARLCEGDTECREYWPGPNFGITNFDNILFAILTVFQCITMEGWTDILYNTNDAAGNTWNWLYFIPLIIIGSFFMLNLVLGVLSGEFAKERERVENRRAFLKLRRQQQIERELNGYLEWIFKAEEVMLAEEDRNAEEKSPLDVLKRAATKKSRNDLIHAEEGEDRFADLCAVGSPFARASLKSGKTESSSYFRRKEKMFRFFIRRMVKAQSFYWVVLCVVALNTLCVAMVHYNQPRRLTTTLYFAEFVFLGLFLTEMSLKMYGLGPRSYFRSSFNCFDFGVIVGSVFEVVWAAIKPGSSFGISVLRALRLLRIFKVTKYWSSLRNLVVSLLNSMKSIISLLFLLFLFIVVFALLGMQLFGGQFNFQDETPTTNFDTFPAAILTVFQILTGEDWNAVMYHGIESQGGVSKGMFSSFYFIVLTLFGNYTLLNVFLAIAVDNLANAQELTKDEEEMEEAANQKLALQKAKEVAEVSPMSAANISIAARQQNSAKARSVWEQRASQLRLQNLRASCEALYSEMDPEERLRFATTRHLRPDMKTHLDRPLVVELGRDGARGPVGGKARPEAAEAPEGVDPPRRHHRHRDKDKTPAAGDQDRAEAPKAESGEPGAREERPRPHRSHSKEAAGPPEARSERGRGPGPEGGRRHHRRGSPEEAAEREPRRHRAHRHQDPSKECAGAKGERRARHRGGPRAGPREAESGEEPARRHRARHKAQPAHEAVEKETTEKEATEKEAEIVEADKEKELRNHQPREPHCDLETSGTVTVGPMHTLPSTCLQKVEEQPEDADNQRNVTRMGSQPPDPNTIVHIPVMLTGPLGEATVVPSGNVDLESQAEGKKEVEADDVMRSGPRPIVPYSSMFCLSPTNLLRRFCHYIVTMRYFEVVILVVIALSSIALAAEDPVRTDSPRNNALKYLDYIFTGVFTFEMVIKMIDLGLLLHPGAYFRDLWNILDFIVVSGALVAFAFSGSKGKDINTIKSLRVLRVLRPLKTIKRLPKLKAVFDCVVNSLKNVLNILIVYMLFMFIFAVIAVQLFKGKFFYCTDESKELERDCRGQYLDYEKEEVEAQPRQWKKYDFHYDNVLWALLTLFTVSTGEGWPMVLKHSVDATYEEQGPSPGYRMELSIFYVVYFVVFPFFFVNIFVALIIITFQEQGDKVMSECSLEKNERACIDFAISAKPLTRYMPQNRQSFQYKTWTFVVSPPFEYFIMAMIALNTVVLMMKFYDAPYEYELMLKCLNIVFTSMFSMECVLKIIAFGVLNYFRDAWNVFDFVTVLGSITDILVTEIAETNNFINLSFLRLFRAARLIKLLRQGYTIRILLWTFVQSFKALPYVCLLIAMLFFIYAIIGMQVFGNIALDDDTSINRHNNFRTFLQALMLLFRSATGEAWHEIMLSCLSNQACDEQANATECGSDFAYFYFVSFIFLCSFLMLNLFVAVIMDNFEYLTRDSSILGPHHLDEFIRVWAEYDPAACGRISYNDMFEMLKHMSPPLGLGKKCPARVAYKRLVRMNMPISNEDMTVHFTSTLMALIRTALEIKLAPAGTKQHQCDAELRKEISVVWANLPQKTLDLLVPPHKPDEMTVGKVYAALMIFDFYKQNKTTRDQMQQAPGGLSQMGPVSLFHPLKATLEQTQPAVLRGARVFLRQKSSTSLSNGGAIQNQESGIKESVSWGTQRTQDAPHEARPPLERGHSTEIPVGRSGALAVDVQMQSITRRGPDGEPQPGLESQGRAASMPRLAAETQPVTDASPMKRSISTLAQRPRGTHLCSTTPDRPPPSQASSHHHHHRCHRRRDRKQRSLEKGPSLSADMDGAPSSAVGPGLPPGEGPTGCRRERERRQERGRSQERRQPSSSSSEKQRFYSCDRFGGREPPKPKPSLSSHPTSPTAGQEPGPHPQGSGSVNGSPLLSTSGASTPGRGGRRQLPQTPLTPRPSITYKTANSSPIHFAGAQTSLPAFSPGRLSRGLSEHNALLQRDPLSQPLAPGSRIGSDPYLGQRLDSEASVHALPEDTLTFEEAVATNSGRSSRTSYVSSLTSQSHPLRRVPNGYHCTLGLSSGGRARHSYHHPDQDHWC
Sequence of human Cav2.2 (P54289 25-951 partner limits assumed): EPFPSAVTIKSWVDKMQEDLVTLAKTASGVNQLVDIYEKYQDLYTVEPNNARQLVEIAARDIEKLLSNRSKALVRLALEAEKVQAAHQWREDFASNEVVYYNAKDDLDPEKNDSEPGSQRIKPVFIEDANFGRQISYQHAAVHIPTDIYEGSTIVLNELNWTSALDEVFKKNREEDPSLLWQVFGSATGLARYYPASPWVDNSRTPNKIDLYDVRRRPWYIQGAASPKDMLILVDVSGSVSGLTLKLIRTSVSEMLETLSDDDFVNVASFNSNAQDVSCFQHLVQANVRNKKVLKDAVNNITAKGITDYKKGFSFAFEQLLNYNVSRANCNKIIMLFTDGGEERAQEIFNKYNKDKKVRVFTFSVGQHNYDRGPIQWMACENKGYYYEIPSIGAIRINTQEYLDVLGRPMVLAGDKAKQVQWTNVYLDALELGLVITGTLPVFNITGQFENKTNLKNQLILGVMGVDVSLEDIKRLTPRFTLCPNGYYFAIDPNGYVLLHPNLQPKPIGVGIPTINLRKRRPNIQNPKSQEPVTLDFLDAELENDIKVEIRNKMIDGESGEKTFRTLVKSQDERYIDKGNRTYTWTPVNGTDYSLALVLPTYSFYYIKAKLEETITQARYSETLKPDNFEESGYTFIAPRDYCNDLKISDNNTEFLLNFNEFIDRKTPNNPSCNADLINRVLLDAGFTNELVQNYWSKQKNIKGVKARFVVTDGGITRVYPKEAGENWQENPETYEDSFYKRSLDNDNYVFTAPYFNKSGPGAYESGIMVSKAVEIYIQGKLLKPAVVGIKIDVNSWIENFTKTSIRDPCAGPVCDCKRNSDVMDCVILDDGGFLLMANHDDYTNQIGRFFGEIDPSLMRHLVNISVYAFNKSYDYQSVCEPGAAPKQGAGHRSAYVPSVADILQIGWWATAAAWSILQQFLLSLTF
Sequence of human Cav2.2 (P54289 952-1103 partner limits assumed): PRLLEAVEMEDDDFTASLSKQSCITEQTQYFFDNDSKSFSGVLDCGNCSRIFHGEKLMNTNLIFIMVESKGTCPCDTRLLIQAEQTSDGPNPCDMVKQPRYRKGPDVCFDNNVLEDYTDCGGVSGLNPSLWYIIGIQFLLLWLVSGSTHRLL
Sequence of human Cav2.2 (P54284 whole entry partner): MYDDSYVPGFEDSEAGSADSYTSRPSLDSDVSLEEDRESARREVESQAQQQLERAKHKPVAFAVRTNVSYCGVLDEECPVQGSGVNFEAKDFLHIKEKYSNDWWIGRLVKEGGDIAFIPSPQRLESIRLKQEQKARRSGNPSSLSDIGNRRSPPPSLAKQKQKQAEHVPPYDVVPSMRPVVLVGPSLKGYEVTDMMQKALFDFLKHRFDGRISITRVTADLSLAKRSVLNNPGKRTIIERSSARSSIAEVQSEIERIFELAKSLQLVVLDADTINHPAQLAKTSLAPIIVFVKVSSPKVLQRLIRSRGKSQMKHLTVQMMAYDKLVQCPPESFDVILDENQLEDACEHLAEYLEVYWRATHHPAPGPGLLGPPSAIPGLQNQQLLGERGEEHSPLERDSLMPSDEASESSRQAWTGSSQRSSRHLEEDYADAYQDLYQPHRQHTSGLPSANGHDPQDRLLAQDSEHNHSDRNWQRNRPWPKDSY

| IC50 | SMILES |
| --- | --- |
| 2400 nM | O=C(CN1CCC(c2ccc(F)cc2)(c2ccc(F)cc2)C1=O)NC1CCN(Cc2cccc(C(F)(F)F)c2)CC1 [Example 208, 2-[3,3-bis(4-fluorophenyl)-2-oxopyrrolidin-1-yl]-N-{1-[3-(trifluoromethyl)benzyl]piperidin-4-yl}acetamide] |
| 1000 nM | CN(C(=O)CN1CCCC(c2ccccc2)(c2ccccc2)C1=O)C1CCN(Cc2cccc(C(F)(F)F)c2)CC1 [Example 197, N-methyl-2-(2-oxo-3,3-diphenylpiperidin-1-yl)-N-{1-[3-(trifluoromethyl)benzyl]piperidin-4-yl}acetamide] |
| 1320 nM | O=C(CN1CCCC(c2ccccc2)(c2ccccc2)C1=O)N1CCN(Cc2cccc(Cl)c2)CC1 [Example 81, 1-{2-[4-(3-chlorobenzyl)piperazin-1-yl]-2-oxoethyl}-3,3-diphenylpiperidin-2-one] |
| 650 nM | O=C(CN1CCC(c2ccccc2)(c2ccccc2)C1=O)N1CCC(C(c2ccccc2)c2ccccc2)CC1 [Example 30, 1-[2-(4-benzhydrylpiperidin-1-yl)-2-oxoethyl]-3,3-diphenylpyrrolidin-2-one] |
| 2600 nM | O=C(CN1CCC(c2ccccc2)(c2ccccc2)C1=O)NCC1CCN(Cc2ccccc2)C1 (stereo not drawn) [Example 39, N-[(1-benzylpyrrolidin-3-yl)methyl]-2-(2-oxo-3,3-diphenylpyrrolidin-1-yl)acetamide] |
| 970 nM | O=C(CN1CCC(c2ccccc2)(c2ccccc2)C1=O)NC(c1ccccc1)c1ccccc1 [Example 14, N-benzhydryl-2-(2-oxo-3,3-diphenylpyrrolidin-1-yl)acetamide] |
| 9410 nM | O=C1N(Cc2nc(-c3cccc(C(F)(F)F)c3)no2)CCCC1(c1ccccc1)c1ccccc1 [Example 179, 3,3-diphenyl-1-({3-[3-(trifluoromethyl)phenyl]-1,2,4-oxadiazol-5-yl}methyl)piperidin-2-one] |
| 6880 nM | O=C1N(S(=O)(=O)c2ccccc2C(F)(F)F)CCC1(c1ccccc1)c1ccccc1 [Example 148, 3,3-diphenyl-1-{[2-(trifluoromethyl)phenyl]sulfonyl}pyrrolidin-2-one] |
| 1960 nM | O=C(CN1CCCC(c2ccccc2)(c2ccccc2)C1=O)N1CCC(C(O)(c2ccc(F)cc2)c2ccc(F)cc2)CC1 [Example 272, 1-(2-{4-[bis(4-fluorophenyl)(hydroxy)methyl]piperidin-1-yl}-2-oxoethyl)-3,3-diphenylpiperidin-2-one] |
| 860 nM | O=C(NC1CC1)c1cccc(S(=O)(=O)N2CCC(c3ccccc3)(c3ccccc3)C2=O)c1 [Example 150, N-cyclopropyl-3-[(2-oxo-3,3-diphenylpyrrolidin-1-yl)sulfonyl]benzamide] |
| 2450 nM | O=C(CN1CCCC(c2ccccc2)(c2ccccc2)C1=O)N1CCC(=C(c2ccc(F)cc2)c2ccc(F)cc2)CC1 [Example 171, 1-(2-{4-[bis(4-fluorophenyl)methylene]piperidin-1-yl}-2-oxoethyl)-3,3-diphenylpiperidin-2-one] |
| 2020 nM | COc1ccc(CC2(C)CN(C(=O)CN3CCC(c4ccccc4)(c4ccccc4)C3=O)CCN2)cc1OC (stereo not drawn) [Example 167, 1-{2-[3-(3,4-dimethoxybenzyl)-3-methylpiperazin-1-yl]-2-oxoethyl}-3,3-diphenylpyrrolidin-2-one] |
| 520 nM | O=C(CN1CCC(c2ccccc2)(c2ccccc2)C1=O)N1CCN(Cc2ccc(Cl)cc2Cl)CC1 [Example 43, 1-{2-[4-(2,4-dichlorobenzyl)piperazin-1-yl]-2-oxoethyl}-3,3-diphenylpyrrolidin-2-one] |
| 1650 nM | COc1cc(OC)cc(OCCCN(C)CCN2CCC(c3ccc(F)cc3)(c3ccc(F)cc3)C2=O)c1 [Example 105, 1-{2-[[3-(3,5-dimethoxyphenoxy)propyl](methyl)amino]ethyl}-3,3-bis(4-fluorophenyl)pyrrolidin-2-one] |
| 1010 nM | O=C(CN1CCC(c2ccccc2)(c2ccccc2)C1=O)N1CCN(C(c2ccccc2)c2ccc(Cl)cc2)CC1 (stereo not drawn) [Example 47, 1-(2-{4-[(4-chlorophenyl)(phenyl)methyl]piperazin-1-yl}-2-oxoethyl)-3,3-diphenylpyrrolidin-2-one] |
| 1840 nM | C[C@@H]1CN(C(=O)c2cccc(S(=O)(=O)N3CCC(c4ccccc4)(c4ccccc4)C3=O)c2)C[C@H](C)O1 [Example 147, 1-[(3-{[cis-2,6-dimethylmorpholin-4-yl]carbonyl}phenyl)sulfonyl]-3,3-diphenylpyrrolidin-2-one] |
| 2480 nM | CC(C)N1CCN(CC(=O)N2CCN(C(c3ccc(F)cc3)c3ccc(F)cc3)CC2)C(=O)C1c1ccccc1 (stereo not drawn) [Example 273, 1-(2-(4-(bis(4-fluorophenyl)methyl)piperazin-1-yl)-2-oxoethyl)-4-isopropyl-3-phenylpiperazin-2-one] |

| IC50 | SMILES |
| --- | --- |
| 5820 nM | O=C1C(c2ccc(F)cc2)CCN1Cc1nc(-c2ccc(C(F)(F)F)cc2)no1 (stereo not drawn) [Example 189, 3-(4-fluorophenyl)-1-({3-[4-(trifluoromethyl)phenyl]-1,2,4-oxadiazol-5-yl}methyl)pyrrolidin-2-one] |
| 1120 nM | COc1cccc(CCN(C)CCCN2CCCC(c3cccc(OC)c3)(C(C)C)C2=O)c1 (stereo not drawn) [Example 128, 3-isopropyl-3-(3-methoxyphenyl)-1-{3-[[2-(3-methoxyphenyl)ethyl](methyl)amino]propyl}piperidin-2-one] |
| 3460 nM | O=C(CN1CCCC(c2ccccc2)(c2ccccc2)C1=O)N1CCCC1c1ccc(F)cc1 (stereo not drawn) [Example 73, 1-{2-[2-(4-fluorophenyl)pyrrolidin-1-yl]-2-oxoethyl}-3,3-diphenylpiperidin-2-one] |
| 2040 nM | O=C(CCCN1CCC(c2ccccc2)(c2ccccc2)C1=O)N1Cc2ccc(C(F)(F)F)cc2C1 [Example 223, 1-{4-oxo-4-[5-(trifluoromethyl)-1,3-dihydro-2H-isoindol-2-yl]butyl}-3,3-diphenylpyrrolidin-2-one] |
| 7070 nM | O=C1N(Cc2nc(-c3ccc(C(F)(F)F)cc3)no2)CCC1(c1ccc(F)cc1)c1ccc(F)cc1 [Example 190, 3,3-bis(4-fluorophenyl)-1-({3-[4-(trifluoromethyl)phenyl]-1,2,4-oxadiazol-5-yl}methyl)pyrrolidin-2-one] |
| 6700 nM | O=C1N(Cc2nc(-c3ccc(Cl)cc3)no2)CCCC1(c1ccccc1)c1ccccc1 [Example 170, 1-{[3-(4-chlorophenyl)-1,2,4-oxadiazol-5-yl]methyl}-3,3-diphenylpiperidin-2-one] |
| 4700 nM | CN1CCN(CC(=O)N2CCN(C(c3ccc(F)cc3)c3ccc(F)cc3)CC2)C(=O)C1c1ccccc1 (stereo not drawn) [Example 104, 1-(2-{4-[bis(4-fluorophenyl)methyl]piperazin-1-yl}-2-oxoethyl)-4-methyl-3-phenylpiperazin-2-one] |
| 7550 nM | O=C(CN1CCC(c2ccccc2)(c2ccccc2)C1=O)N1CCC(C(O)(c2cccc(C(F)(F)F)c2)c2cccc(C(F)(F)F)c2)CC1 [Example 33, 1-{2-[4-(hydroxy{bis[3-(trifluoromethyl)phenyl]}methyl)piperidin-1-yl]-2-oxoethyl}-3,3-diphenylpyrrolidin-2-one] |
| 1530 nM | O=C(CN1CCC(c2ccc(F)cc2)(c2ccc(F)cc2)C1=O)N1Cc2ccc(C(F)(F)F)cc2C1 [Example 228, 3,3-bis(4-fluorophenyl)-1-{2-oxo-2-[5-(trifluoromethyl)-1,3-dihydro-2H-isoindol-2-yl]ethyl}pyrrolidin-2-one] |
| 3010 nM | O=C1N(CCCN2CCN(c3ncccn3)CC2)CCCC1(c1ccc(F)cc1)c1ccc(F)cc1 [Example 135, 3,3-bis(4-fluorophenyl)-1-[3-(4-pyrimidin-2-ylpiperazin-1-yl)propyl]piperidin-2-one] |
| 860 nM | O=C(CN1CCCC(c2ccccc2)(c2ccccc2)C1=O)NC1CN(Cc2cccc(C(F)(F)F)c2F)C1 [Example 201, N-{1-[2-fluoro-3-(trifluoromethyl)benzyl]azetidin-3-yl}-2-(2-oxo-3,3-diphenylpiperidin-1-yl)acetamide] |
| 4610 nM | O=C(CN1CCCC(c2ccc(F)cc2)(c2ccc(F)cc2)C1=O)N1CCN(C(c2ccccc2)c2ccccc2)CC1 [Example 90, 1-[2-(4-benzhydrylpiperazin-1-yl)-2-oxoethyl]-3,3-bis(4-fluorophenyl)piperidin-2-one] |
| 2760 nM | C[C@@H]1CN(C(c2ccccc2)c2ccccc2)CCN1C(=O)CN1CCC(c2ccccc2)(c2ccccc2)C1=O [Example 49, 1-{2-[(2R)-4-benzhydryl-2-methylpiperazin-1-yl]-2-oxoethyl}-3,3-diphenylpyrrolidin-2-one] |
| 1370 nM | O=C(CN1CCCC(c2ccccc2)(c2ccccc2)C1=O)N[C@@H]1CCN(Cc2cccc(C(F)(F)F)c2)C1 [Example 186, 2-(2-oxo-3,3-diphenylpiperidin-1-yl)-N-{(3R)-1-[3-(trifluoromethyl)benzyl]pyrrolidin-3-yl}acetamide] |
| 11100 nM | O=C(CN1CCC(c2ccc(F)cc2)C1=O)N1Cc2ccc(C(F)(F)F)cc2C1 (single isomer, unassigned; (-)) [Example 265, (−)-3-(4-fluorophenyl)-1-{2-oxo-2-[5-(trifluoromethyl)-1,3-dihydro-2H-isoindol-2-yl]ethyl}pyrrolidin-2-one] |
| 8960 nM | N#Cc1ccc(C2CN(C(=O)CN3CCCC(c4ccccc4)(c4ccccc4)C3=O)C2)cc1 [Example 241, 4-{1-[(2-oxo-3,3-diphenylpiperidin-1-yl)acetyl]azetidin-3-yl}benzonitrile] |
